Results taken from US20220249538A1, “TREATMENT AGENT FOR SEX HORMONE-INSENSITIVE GREB1-POSITIVE TUMORS” (OSAKA UNIVERSITY, priority 2019, published 2022).

Columns and labels:
Type in all cases: cell-based, human
[1] = test system: GREB1; assay: GREB1 expression in HepG2 cells after GREB1 siRNA or GREB1 ASO (cell lysates probed with anti-GREB1 antibody); conditions: siRNA 10 nm, lysate probing
Method: Phosphorothioated I5-mer antisense oligonucleotides (ASOs) containing AmNA monomers were prepared (synthesized by GeneDesign (Ibaraki, Japan)). In the present specification, “hGREB1-6424-AmNA (15)” is sometimes simply referred to as “ASO-6424” or “GREB1 ASO-6424”. Similar abbreviations are used for describing other ASOs. Using RNAiMAX (Invitrogen, Carlsbad, Calif., USA), HepG2 or COLO679 cells were transfected with 10 nM of ASOs. In experiments, the cells were used from 36 to 48 hours after transfection.
Using RNAiMAX (Life Technologies/Thermo Fisher Scientific), HepG2 cells, Huh6 cells, Hep3B cells, JHH7 cells, and SKMEL28 cells were each transfected with each siRNA (10 nm). In experiments, the cells were used from 48 to 120 hours after transfection.
As reported previously, knockdown of β-catenin decreased HepG2 cell proliferation (see a of FIG. 3). […] Thus, to elucidate the role of GREB1 in HepG2 cells, knockdown of GREB1 was carried out using two different siRNAs.
Next, HepG2 cells were transfected with control ASO or each of the above-described GREB1 ASOs, cultured in a medium containing 10% FBS for 2 days, and the cell lysates were probed with anti-GREB1 antibody and anti-HSP90 antibody.

[2] = test system: HepG2 cells; assay: Cell proliferation assay, two-dimensional culture (plastic dish), Cyquant
Method: Cells were seeded on a plate at 1.0×10^4 cells/mL, and, after 12 hours, the medium was replaced with a medium containing 10% serum. While the cell number was counted every 48 hours, the cells were cultured up to 10 days. The measurement of the cell number was performed using Cyquant NF assays (Life Technologies/Thermo Fisher Scientific) according to protocols recommended by the manufacturer.
Mock HepG2 cells (having a vector only, containing no GREB1) or GREB1-transduced HepG2 cells were transfected with control siRNA or two different types of siRNA (GREB1 #1 siRNA and GREB1 #2 siRNA), then two-dimensional culture (plastic dish culture) was performed, and a relative cell number was calculated by Cyquant assay overtime. As a result, in GREB1 knockdown, proliferative capacity of HepG2 cells in two-dimensional culture was reduced. However, when GREB1-transduced HepG2 cells were transfected with siRNAs against GREB1 (GREB1 #1 siRNA/GREB1 and GREB1 #2 siRNA/GREB1), the proliferative capacity of HepG2 cells was not affected (see a of FIG. 4).

[3] = test system: HepG2 cells; assay: Cell viability by propidium iodide and Hoechst33342 staining; conditions: medium without Z-VAD, 0.1% FBS, 2 days; PI and Hoechst33342
Method: Further, HepG2 cells were transfected with control siRNA or siRNAs (GREB1 #1 siRNA and GREB1 #2 siRNA), cultured in media (caspase inhibitor Z-VAD was contained in one condition, and not contained in the other condition) containing 0.1% FBS for 2 days, stained with propidium iodide (PI, […]) and Hoechst33342 (nucleus), and the cell viability was evaluated.
Further, HepG2 cells transfected with control siRNA, GREB1 siRNA (GREB1 #2 siRNA), p15 siRNA, or siRNA of GREB1 (GREB1 #2 siRNA) and siRNA of p15 in combination were cultured in media (caspase inhibitor Z-VAD was contained in one condition, and not contained in the other condition) containing 0.1% FBS for 2 days, stained with propidium iodide (PI) and Hoechst33342, and the cell viability was calculated.

Substance: GREB1 #2 siRNA: siRNA against human GREB1; sense 5′-CCUCCUACAAAGCAAUAUUTT-3′ (SEQ ID NO: 6), antisense SEQ ID NO: 7 (antisense AAUAUUGCUUUGUAGGAGGTT; chemistry not given here)
- knockdown of GREB1 (anti-GREB1 antibody) [1]: knocked down
- proliferative capacity of HepG2 cells in two-dimensional culture ([2]; GREB1-transduced HepG2 cells): not affected
- proliferative capacity of HepG2 cells in two-dimensional culture ([2]; mock HepG2 cells, relative cell number by Cyquant over time): reduced
- cell death of HepG2 cells [3]: elevated cell death
